Where a name gives a salt, the structure may show the parent alone. Where a SMILES comes first, the peptide text is derived from it. [ ]: non-standard residue; d: D form. The star is where a group is joined. X2 = CC(C)[C@@H](C(=O)*)N(C)CCCCCCN1C(=O)CC(SC[C@H](N)C(=O)O)C1=O; X3 = CC(C)[C@@H](C(=O)*)N(C)CCOCCOCCOCCC(=O)NCCCC[C@H](N)C(=O)O; X1 = CC(C)[C@@H](C(=O)*)N(C)CCCCCC(=O)NCCCC[C@H](N)C(=O)O; Dolaproine = CO[C@@H]([C@@H]1CCCN1)[C@@H](C)C(=O)O; Dil = CC[C@H](C)[C@H](NC)[C@@H](CC(=O)O)OC; X4 = C[C@@H](N*)[C@@H](O)c1ccccc1; Oxazinan2yl(1,2) = C1CCN(*)OC1; NMeV = CN[C@H](C(=O)O)C(C)C
Columns and labels:
[1] = Flux assay using Caco-2 cells (cell permeability); type: in vitro ADME; settings: human, 2 hours incubation
Experimental: (§1) The cell permeability of a substance can be investigated by means of in vitro testing in a flux assay using Caco-2 cells [M. D. Troutman and D. R. Thakker, Pharm. Res. 20 (8), 1210-1224 (2003)]. For this purpose, the cells were cultured for 15-16 days on 24-well filter plates. For the determination of permeation, the respective working example was applied in a HEPES buffer to the cells either apically (A) or basally (B) and incubated for 2 hours. After 0 hours and after 2 hours, samples were taken from the cis and trans compartments. The samples were separated by HPLC (Agilent 1200, Böblingen, Germany) using reverse phase columns. The HPLC system was coupled via a Turbo Ion Spray Interface to a Triple Quadropol mass spectrometer API 4000 (Applied Biosystems Applera, Darmstadt, Germany). The permeability was evaluated on the basis of a Papp value, which was calculated using the formula published by Schwab et al. [D. Schwab et al., J. Med. Chem. 46, 1716-1725 (2003)].

tubulin = assay: Fluorescence-based microtubule polymerisation assay; type: biochemical; settings: rate at 1 μM MMAF set at 100%
Experimental: Tubulin polymerization was investigated using the “Fluorescence-based Microtubule Polymerisation Assay Kit” from Cytoskeleton (Denver, Colo., USA; order number: BK011). With this assay, GTP is added to unpolymerized tubulin, allowing polymerization to take place spontaneously. The assay is based on the binding of the fluorophore 4′,6-diamidino-2-phenylindole (DAPI) to tubulin. Free and bound DAPI can be differentiated on the basis of different emission spectra.
In addition to the buffer control, paclitaxel, with a polymerization-increasing effect, and vinblastin, with a polymerization inhibiting effect, were run additionally as assay controls. Measurement was carried out using 96-well plates with a half base area. The kinetics of the tubulin polymerization were monitored in a Fluorimeter at 37° C. for 1 hour. The excitation wavelength was 355 nm, and emission was monitored at 460 nm. For the region of linear increase within the first 10 minutes, a calculation was made of the change in fluorescence per minute (ΔF/min), which represents the polymerization rate of the microtubuli. The potency of the test substances was quantified on the basis of their respective reduction of the polymerization rate. Table 6 below gives data for the influence of representative working examples on tubulin polymerization.

Caco-2 cells = assay: Flux assay using Caco-2 cells (cell permeability); type: in vitro ADME; settings: 2 hours incubation
Experimental: as §1

Compound | Papp B→A at 2 h [1] | Tubulin polymerization in the presence of toxophore (tubulin; toxophore 1 μM) | Tubulin polymerization in the presence of toxophore (tubulin; toxophore 10 μM) | Papp (B-A) (Caco-2 cells)
CC[C@H](C)[C@@H]([C@@H](CC(=O)N1CCC[C@H]1[C@H](OC)[C@@H](C)C(=O)N[C@@H](Cc1c[nH]c2ccccc12)C(=O)N1CCCCO1)OC)N(C)C(=O)[C@@H](NC(=O)[C@H](C(C)C)N(C)CCCCCC(=O)NCCCC[C@H](N)C(=O)O)C(C)C [Example 18, N-(6-{[(5S)-5-Amino-5-carboxypentyl]amino}-6-oxohexyl)-N-methyl-L-valyl-N-[(3R,4S,5S)-1-{(2S)-2-[(1R,2R)-3-{[(2S)-3-(1H-indol-3-yl)-1-(1,2-oxazinan-2-yl)-1-oxopropan-2-yl]amino}-1-methoxy-2-methyl-3-oxopropyl]pyrrolidin-1-yl}-3-methoxy-5-methyl-1-oxoheptan-4-yl]-N-methyl-L-valinamide trifluoroacetate] (X1-V[Dil][Dolaproine]W-{Oxazinan2yl(1,2)}) | 0.2 ×10⁻⁶ cm/s | 45% | 1% | 
CC[C@H](C)[C@@H]([C@@H](CC(=O)N1CCC[C@H]1[C@H](OC)[C@@H](C)C(=O)N[C@@H](Cc1c[nH]c2ccccc12)C(=O)O)OC)N(C)C(=O)[C@@H](NC(=O)[C@H](C(C)C)N(C)CCCCCC(=O)NCCCC[C@H](N)C(=O)O)C(C)C [Example 19, N-(6-{[(5S)-5-Amino-5-carboxypentyl]amino}-6-oxohexyl)-N-methyl-L-valyl-N-[(3R,4S,5S)-1-{(2S)-2-[(1R,2R)-3-{[(1S)-1-carboxy-2-(1H-indol-3-yl)ethyl]amino}-1-methoxy-2-methyl-3-oxopropyl]pyrrolidin-1-yl}-3-methoxy-5-methyl-1-oxoheptan-4-yl]-N-methyl-L-valinamide] (X1-V[Dil][Dolaproine]W-OH) | 0.1 ×10⁻⁶ cm/s | 80% | 14% | 
CC[C@H](C)[C@@H]([C@@H](CC(=O)N1CCC[C@H]1[C@H](OC)[C@@H](C)C(=O)N[C@@H](Cc1c[nH]c2ccccc12)C(=O)N1CCCCO1)OC)N(C)C(=O)[C@@H](NC(=O)[C@H](C(C)C)N(C)CCOCCOCCOCCC(=O)NCCCC[C@H](N)C(=O)O)C(C)C [Example 20, N-[(18S)-18-Amino-18-carboxy-12-oxo-3,6,9-trioxa-13-azaoctadec-1-yl]-N-methyl-L-valyl-N-[(3R,4S,5S)-1-{(2S)-2-[(1R,2R)-3-{[(2S)-3-(1H-indol-3-yl)-1-(1,2-oxazinan-2-yl)-1-oxopropan-2-yl]amino}-1-methoxy-2-methyl-3-oxopropyl]pyrrolidin-1-yl}-3-methoxy-5-methyl-1-oxoheptan-4-yl]-N-methyl-L-valinamide trifluoroacetate] (X3-V[Dil][Dolaproine]W-{Oxazinan2yl(1,2)}) |  | 60% | 0% | 
CC[C@H](C)[C@@H]([C@@H](CC(=O)N1CCC[C@H]1[C@H](OC)[C@@H](C)C(=O)N[C@@H](Cc1c[nH]c2ccccc12)C(N)=O)OC)N(C)C(=O)[C@@H](NC(=O)[C@H](C(C)C)N(C)CCCC(=O)NNC(=O)CCCCCN1C(=O)CC(SC[C@H](N)C(=O)O)C1=O)C(C)C (stereo partly drawn) [Example 21, N-(4-{2-[6-(3-{[(2R)-2-Amino-2-carboxyethyl]sulphanyl}-2,5-dioxopyrrolidin-1-yl)hexanoyl]hydrazino}-4-oxobutyl)-N-methyl-L-valyl-N-[(3R,4S,5S)-1-{(2S)-2-[(1R,2R)-3-{[(2S)-1-amino-3-(1H-indol-3-yl)-1-oxopropan-2-yl]amino}-1-methoxy-2-methyl-3-oxopropyl]pyrrolidin-1-yl}-3-methoxy-5-methyl-1-oxoheptan-4-yl]-N-methyl-L-valinamide] | 0.2 ×10⁻⁶ cm/s | 88% | 25% | 
CC[C@H](C)[C@@H]([C@@H](CC(=O)N1CCC[C@H]1[C@H](OC)[C@@H](C)C(=O)N[C@@H](Cc1c[nH]c2ccccc12)C(=O)O)OC)N(C)C(=O)[C@@H](NC(=O)[C@H](C(C)C)N(C)CCCCCCN1C(=O)CC(SC[C@H](N)C(=O)O)C1=O)C(C)C (stereo partly drawn) [Example 23, N-[6-(3-{[(2R)-2-Amino-2-carboxyethyl]sulphanyl}-2,5-dioxopyrrolidin-1-yl)hexyl]-N-methyl-L-valyl-N-[(3R,4S,5S)-1-{(2S)-2-[(1R,2R)-3-{[(1S)-1-carboxy-2-(1H-indol-3-yl)ethyl]amino}-1-methoxy-2-methyl-3-oxopropyl]pyrrolidin-1-yl}-3-methoxy-5-methyl-1-oxoheptan-4-yl]-N-methyl-L-valinamide] (X2-V[Dil][Dolaproine]W-OH) | 0.1 ×10⁻⁶ cm/s |  |  | 
CC[C@H](C)[C@@H]([C@@H](CC(=O)N1CCC[C@H]1[C@H](OC)[C@@H](C)C(=O)N[C@@H](Cc1c[nH]c2ccccc12)C(=O)N1CCCCO1)OC)N(C)C(=O)[C@@H](NC(=O)[C@H](C(C)C)N(C)CCCCCCN1C(=O)CC(SC[C@H](N)C(=O)O)C1=O)C(C)C (stereo partly drawn) [Example 24, N-[6-(3-{[(2R)-2-Amino-2-carboxyethyl]sulphanyl}-2,5-dioxopyrrolidin-1-yl)hexyl]-N-methyl-L-valyl-N-[(3R,4S,5S)-1-{(2S)-2-[(1R,2R)-3-{[(2S)-3-(1H-indol-3-yl)-1-(1,2-oxazinan-2-yl)-1-oxopropan-2-yl]amino}-1-methoxy-2-methyl-3-oxopropyl]pyrrolidin-1-yl}-3-methoxy-5-methyl-1-oxoheptan-4-yl]-N-methyl-L-valinamide] (X2-V[Dil][Dolaproine]W-{Oxazinan2yl(1,2)}) |  | 121% | 35% | 
CC[C@H](C)[C@@H]([C@@H](CC(=O)N1CCC[C@H]1[C@H](OC)[C@@H](C)C(=O)N[C@@H](Cc1ccc(O)cc1)C(=O)N1CCCCO1)OC)N(C)C(=O)[C@@H](NC(=O)[C@H](C(C)C)N(C)CCCCCC(=O)NCCCC[C@H](N)C(=O)O)C(C)C [Example 36, N-(6-{[(5S)-5-Amino-5-carboxypentyl]amino}-6-oxohexyl)-N-methyl-L-valyl-N-[(3R,4S,5S)-1-{(2S)-2-[(1R,2R)-3-{[(2S)-3-(4-hydroxyphenyl)-1-(1,2-oxazinan-2-yl)-1-oxopropan-2-yl]amino}-1-methoxy-2-methyl-3-oxopropyl]pyrrolidin-1-yl}-3-methoxy-5-methyl-1-oxoheptan-4-yl]-N-methyl-L-valinamide trifluoroacetate] (X1-V[Dil][Dolaproine]Y-{Oxazinan2yl(1,2)}) | 0.15 ×10⁻⁶ cm/s |  |  | 
CC[C@H](C)[C@@H]([C@@H](CC(=O)N1CCC[C@H]1[C@H](OC)[C@@H](C)C(=O)N[C@@H](Cc1ccc(O)cc1)C(=O)O)OC)N(C)C(=O)[C@@H](NC(=O)[C@H](C(C)C)N(C)CCCCCC(=O)NCCCC[C@H](N)C(=O)O)C(C)C [Example 37, N-(6-{[(5S)-5-Amino-5-carboxypentyl]amino}-6-oxohexyl)-N-methyl-L-valyl-N-[(3R,4S,5S)-1-{(2S)-2-[(1R,2R)-3-{[(1S)-1-carboxy-2-(4-hydroxyphenyl)ethyl]amino}-1-methoxy-2-methyl-3-oxopropyl]pyrrolidin-1-yl}-3-methoxy-5-methyl-1-oxoheptan-4-yl]-N-methyl-L-valinamide trifluoroacetate] (X1-V[Dil][Dolaproine]Y-OH) | 0.09 ×10⁻⁶ cm/s |  |  | 
CC[C@H](C)[C@@H]([C@@H](CC(=O)N1CCC[C@H]1[C@H](OC)[C@@H](C)C(=O)N[C@H](C)[C@@H](O)c1ccccc1)OC)N(C)C(=O)[C@@H](NC(=O)[C@@H](NC)C(C)C)C(C)C [monomethylauristatin E (MMAE), monomethylauristatin E, reference compound] (H-[NMeV]V[Dil][Dolaproine]-X4) |  |  |  | 7.3 ×10⁻⁶ cm/s
CC[C@H](C)[C@@H]([C@@H](CC(=O)N1CCC[C@H]1[C@H](OC)[C@@H](C)C(=O)N[C@@H](Cc1ccccc1)C(=O)O)OC)N(C)C(=O)[C@@H](NC(=O)[C@@H](NC)C(C)C)C(C)C [monomethylauristatin F (MMAF), monomethylauristatin F, reference compound] (H-[NMeV]V[Dil][Dolaproine]F-OH) |  | 100% | 34% | 7.3 ×10⁻⁶ cm/s

From US20150023989A1, “NEW ANTIBODY DRUG CONJUGATES (ADCS) AND THE USE THEREOF” (SEATTLE GENETICS, INC., priority 2011, published 2015)
